From US20260217673A1, “NOVEL COMPOUND AS RON INHIBITOR” (LG CHEM, LTD., priority 2022, published 2026)
pIC50: −log10 of the molar value.

Columns and labels:
RON = RON (Homo sapiens, UniProt Q04912); assay: RON inhibitory activity, TR-FRET kinase assay; assay type: biochemical; details: RON protein, ULight-labeled Poly GT substrate
Method: To measure the RON inhibitory activity of the example compounds, the IC50 of the compounds was measured using time-resolved fluorescence energy transfer (TR-FRET).
Specifically, the compound was prepared at a concentration of 1 mM with 100% DMSO and serially diluted 10 times through 3-fold dilution. 2 μl of the serially diluted compound was added to a 96-well plate containing 48 μl of 1× kinase reaction buffer (50 mM HEPES (pH 7.4), 0.01% Tween-20, 5 mM DTT, 0.5 mM Na3VO4, 2 mM EGTA, 10 mM MgCl2).
The RON protein was diluted with a RON storage buffer (50 mM Tris-HCl (pH 7.5), 150 mM NaCl, 0.5 mM EDTA, 0.02% Triton X-100) to a concentration of 49.3 nM, and then diluted again with 1× kinase reaction buffer to be 0.4 nM. As a substrate cocktail, a RON-specific substrate mixture (40 μM ULight-labeled Poly GT, 100 nM ATP) was prepared at a concentration twice the final reaction concentration.
(§1) After that, a 384-well plate was prepared, and 2.5 μl of the diluted example compound was added to each of the experimental group wells, and 2.5 μl of a 4% DMSO solution was dispensed into high control wells and low control wells.
(§2) Afterward, 2.5 μl of 0.4 nM RON was dispensed into the high control wells and the experimental group wells, and 2.5 μl of 1× kinase reaction buffer was added to the low control wells, and after centrifugation at 1000 RPM for 40 seconds at room temperature, the mixtures were incubated at room temperature for 20 to 30 minutes. Then, 5 μl of the substrate cocktail (2×) was dispensed into all wells, and after centrifugation at 1000 RPM for 40 seconds at room temperature, the mixtures were incubated at room temperature for 60 minutes. Afterward, 5 μl of 30 mM EDTA was added to all wells to terminate the reaction, and the mixtures were incubated again at room temperature for 5 minutes. Thereafter, 5 μl of 4× phosphotyrosine antibodies (Perkin Elmer) containing europium was added to all wells and incubated at room temperature for 60 minutes. After the incubation, the 384-well-plate was read with a Vison plate reader. At this time, the excitation wavelength was 340 nm, and the emission wavelengths were 620 nm and 665 nm. The IC50 value of each example compound was derived using the GraphPd Prism7 program.

cMET = cMET (Homo sapiens, UniProt P08581); assay: MET (cMET) enzyme inhibitory activity, TR-FRET kinase assay; assay type: biochemical; details: cMET protein, TK peptide substrate
Chain of cMET (P08581 25-1390): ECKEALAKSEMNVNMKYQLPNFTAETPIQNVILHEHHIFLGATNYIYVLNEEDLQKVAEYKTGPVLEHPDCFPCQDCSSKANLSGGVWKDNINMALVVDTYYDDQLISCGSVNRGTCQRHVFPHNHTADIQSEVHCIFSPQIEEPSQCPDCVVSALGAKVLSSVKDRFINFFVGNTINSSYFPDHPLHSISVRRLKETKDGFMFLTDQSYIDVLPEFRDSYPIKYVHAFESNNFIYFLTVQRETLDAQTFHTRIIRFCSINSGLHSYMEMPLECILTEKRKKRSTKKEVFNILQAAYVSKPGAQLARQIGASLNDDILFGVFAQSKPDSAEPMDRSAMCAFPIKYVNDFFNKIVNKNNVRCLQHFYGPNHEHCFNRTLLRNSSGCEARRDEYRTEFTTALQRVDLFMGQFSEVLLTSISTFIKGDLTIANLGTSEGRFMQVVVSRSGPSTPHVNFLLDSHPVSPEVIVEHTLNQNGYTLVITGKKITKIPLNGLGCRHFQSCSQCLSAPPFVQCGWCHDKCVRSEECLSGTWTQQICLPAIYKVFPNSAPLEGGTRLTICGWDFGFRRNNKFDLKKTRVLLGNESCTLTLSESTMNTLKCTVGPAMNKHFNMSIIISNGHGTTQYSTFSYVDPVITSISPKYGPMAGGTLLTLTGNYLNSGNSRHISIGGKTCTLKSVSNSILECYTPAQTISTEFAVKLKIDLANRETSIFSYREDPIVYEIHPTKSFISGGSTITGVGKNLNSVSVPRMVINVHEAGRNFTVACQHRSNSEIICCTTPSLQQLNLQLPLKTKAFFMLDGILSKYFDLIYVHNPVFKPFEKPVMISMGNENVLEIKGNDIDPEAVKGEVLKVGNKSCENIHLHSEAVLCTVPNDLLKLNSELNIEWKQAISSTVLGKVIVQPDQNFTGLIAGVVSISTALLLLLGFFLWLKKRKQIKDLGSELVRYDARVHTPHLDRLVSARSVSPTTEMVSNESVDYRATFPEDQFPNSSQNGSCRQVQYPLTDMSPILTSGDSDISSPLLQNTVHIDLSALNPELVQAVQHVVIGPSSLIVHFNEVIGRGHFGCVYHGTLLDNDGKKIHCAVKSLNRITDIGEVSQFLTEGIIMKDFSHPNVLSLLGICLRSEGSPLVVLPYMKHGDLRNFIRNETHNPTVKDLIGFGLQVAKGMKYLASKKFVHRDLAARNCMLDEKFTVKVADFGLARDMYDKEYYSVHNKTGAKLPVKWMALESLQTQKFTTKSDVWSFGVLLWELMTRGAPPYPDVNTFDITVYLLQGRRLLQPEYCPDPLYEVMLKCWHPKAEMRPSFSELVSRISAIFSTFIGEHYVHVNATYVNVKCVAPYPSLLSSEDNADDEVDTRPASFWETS
Method: In addition, to measure cMET enzyme activity inhibition, an experiment was performed by the same method as the experiment for measuring the RON enzyme activity inhibition.
Specifically, the compound was prepared at a concentration of 1 mM with 100% DMSO and serially diluted 10 times through 3-fold dilution. 2 μl of the serially diluted compound was added to a 96-well plate containing 48 μl 1× kinase reaction buffer (50 mM HEPES (pH 7.4), 0.05% BSA, 0.005% Tween-20, 1 mM DTT, 0.5 mM MnCl2, 20 mM MgCl2).
The cMET protein was diluted in a cMET storage buffer (50 mM Tris-HCl (pH 7.5), 150 mM NaCl, 0.05% Brij35, 1 mM DTT, 10% glycerol) to a concentration of 263 nM, and then diluted again with 1× kinase reaction buffer to 2 nM. As a substrate cocktail, a MET-specific substrate mixture (5 μM TK peptide, 10 mM ATP) was prepared at a concentration twice the final reaction concentration.
as §1
as §2, with “μl of 2 nM cMET” for “μl of 0.4 nM RON”, “2 nM cMET was dispensed” for “0.4 nM RON was dispensed”, “was dispensed to the high” for “was dispensed into the high”, “μl of 90 mM EDTA” for “μl of 30 mM EDTA”

Chain of RON (Q04912 25-1400, species assumed): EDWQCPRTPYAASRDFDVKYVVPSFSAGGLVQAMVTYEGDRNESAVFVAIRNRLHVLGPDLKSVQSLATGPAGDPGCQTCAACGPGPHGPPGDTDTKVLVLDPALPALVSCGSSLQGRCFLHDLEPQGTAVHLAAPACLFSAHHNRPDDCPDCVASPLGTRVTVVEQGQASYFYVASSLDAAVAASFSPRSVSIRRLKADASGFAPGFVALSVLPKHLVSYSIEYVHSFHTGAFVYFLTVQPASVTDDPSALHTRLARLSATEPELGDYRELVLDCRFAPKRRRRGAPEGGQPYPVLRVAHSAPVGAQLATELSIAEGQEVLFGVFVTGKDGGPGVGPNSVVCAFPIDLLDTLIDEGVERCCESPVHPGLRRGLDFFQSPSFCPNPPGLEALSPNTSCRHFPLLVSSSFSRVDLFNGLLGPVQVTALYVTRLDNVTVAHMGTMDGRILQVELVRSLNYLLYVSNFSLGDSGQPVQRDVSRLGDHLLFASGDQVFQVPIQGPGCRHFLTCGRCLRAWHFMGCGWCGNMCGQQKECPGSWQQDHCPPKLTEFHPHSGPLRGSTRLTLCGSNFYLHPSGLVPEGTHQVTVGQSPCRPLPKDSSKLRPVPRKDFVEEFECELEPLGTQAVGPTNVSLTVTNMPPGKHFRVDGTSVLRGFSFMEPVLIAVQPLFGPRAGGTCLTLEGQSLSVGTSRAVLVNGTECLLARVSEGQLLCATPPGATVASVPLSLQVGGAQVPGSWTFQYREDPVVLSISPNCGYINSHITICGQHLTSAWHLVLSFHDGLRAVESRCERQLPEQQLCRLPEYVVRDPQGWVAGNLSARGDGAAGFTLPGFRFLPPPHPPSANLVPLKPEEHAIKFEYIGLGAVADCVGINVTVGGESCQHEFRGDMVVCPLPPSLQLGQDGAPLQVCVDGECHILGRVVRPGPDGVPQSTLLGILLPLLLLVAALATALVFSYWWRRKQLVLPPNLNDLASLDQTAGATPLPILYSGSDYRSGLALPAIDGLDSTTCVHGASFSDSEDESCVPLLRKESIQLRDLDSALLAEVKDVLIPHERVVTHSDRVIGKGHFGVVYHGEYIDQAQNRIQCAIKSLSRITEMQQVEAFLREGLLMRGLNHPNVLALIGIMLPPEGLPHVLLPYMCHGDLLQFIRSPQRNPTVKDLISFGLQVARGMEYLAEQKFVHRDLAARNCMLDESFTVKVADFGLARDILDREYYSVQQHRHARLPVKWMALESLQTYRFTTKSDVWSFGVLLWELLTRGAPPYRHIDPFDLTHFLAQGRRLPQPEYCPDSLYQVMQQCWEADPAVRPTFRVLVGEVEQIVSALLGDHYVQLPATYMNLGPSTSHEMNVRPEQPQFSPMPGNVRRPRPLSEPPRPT

Row | Structure (SMILES) | pIC50 (RON) | pIC50 (cMET)
1 | N#Cc1c(Oc2c(F)cc(NC(=O)c3cnn(-c4cccnn4)c3C(F)(F)F)cc2F)ccnc1N [Example 36, N-(4-((2-amino-3-cyanopyridin-4-yl)oxy)-3,5-difluorophenyl)-1-(pyridazin-3-yl)-5-(trifluoromethyl)-1H-pyrazole-4-carboxamide] | 6.30 to 7.30 | 5.30 to 6.30
2 | Nc1nccc(Oc2c(F)cc(NC(=O)c3cnn(-c4ncccc4Cl)c3C(F)(F)F)cc2F)c1C1CC1 [Example 39, N-(4-((2-amino-3-cyclopropylpyridin-4-yl)oxy)-3,5-difluorophenyl)-1-(3-chloropyridin-2-yl)-5-(trifluoromethyl)-1H-pyrazole-4-carboxamide] | > 7.30 | 5.30 to 6.30
3 | Nc1nccc(Oc2c(F)cc(NC(=O)c3cnn(-c4ccccn4)c3C(F)(F)F)cc2F)c1C1CC1 [Example 40, N-(4-((2-amino-3-cyclopropylpyridin-4-yl)oxy)-3,5-difluorophenyl)-1-(pyridin-2-yl)-5-(trifluoromethyl)-1H-pyrazole-4-carboxamide] | > 7.30 | 5.30 to 6.30
4 | Nc1nccc(Oc2c(F)cc(NC(=O)c3cnn(-c4ncccn4)c3C(F)(F)F)cc2F)c1C1CC1 [Example 41, N-(4-((2-amino-3-cyclopropylpyridin-4-yl)oxy)-3,5-difluorophenyl)-1-(pyrimidin-2-yl)-5-(trifluoromethyl)-1H-pyrazole-4-carboxamide] | > 7.30 | 5.30 to 6.30
5 | Nc1nccc(Oc2c(F)cc(NC(=O)c3cnn(-c4cccnn4)c3C(F)(F)F)cc2F)c1C1CC1 [Example 42, N-(4-((2-amino-3-cyclopropylpyridin-4-yl)oxy)-3,5-difluorophenyl)-1-(pyridazin-3-yl)-5-(trifluoromethyl)-1H-pyrazole-4-carboxamide] | > 7.30 | 5.30 to 6.30
6 | CC(C)c1c(Oc2c(F)cc(NC(=O)c3cnn(-c4ccccc4)c3C(F)(F)F)cc2F)ccnc1N [Example 43, N-(4-((2-amino-3-isopropylpyridin-4-yl)oxy)-3,5-difluorophenyl)-1-phenyl-5-(trifluoromethyl)-1H-pyrazole-4-carboxamide] | > 7.30 | 5.30 to 6.30
7 | CC(C)c1c(Oc2c(F)cc(NC(=O)c3cnn(-c4ncccc4Cl)c3C(F)(F)F)cc2F)ccnc1N [Example 44, N-(4-((2-amino-3-isopropylpyridin-4-yl)oxy)-3,5-difluorophenyl)-1-(3-chloropyridin-2-yl)-5-(trifluoromethyl)-1H-pyrazole-4-carboxamide] | > 7.30 | 5.30 to 6.30
8 | CC(C)c1c(Oc2c(F)cc(NC(=O)c3cnn(-c4ncccn4)c3C(F)(F)F)cc2F)ccnc1N [Example 45, N-(4-((2-amino-3-isopropylpyridin-4-yl)oxy)-3,5-difluorophenyl)-1-(pyrimidin-2-yl)-5-(trifluoromethyl)-1H-pyrazole-4-carboxamide] | > 7.30 | 5.30 to 6.30
9 | CC(C)c1c(Oc2c(F)cc(NC(=O)c3cnn(-c4ncccc4F)c3C(F)(F)F)cc2F)ccnc1N [Example 46, N-(4-((2-amino-3-isopropylpyridin-4-yl)oxy)-3,5-difluorophenyl)-1-(3-fluoropyridin-2-yl)-5-(trifluoromethyl)-1H-pyrazole-4-carboxamide] | > 7.30 | 5.30 to 6.30
10 | Nc1nccc(Oc2c(F)cc(NC(=O)c3cnn(-c4ncccc4F)c3C(F)(F)F)cc2F)c1CN1CCOCC1 [Example 47, N-(4-((2-amino-3-(morpholinomethyl)pyridin-4-yl)oxy)-3,5-difluorophenyl)-1-(3-fluoropyridine-2-yl)-5-(trifluoromethyl)-1H-pyrazole-4-carboxamide] | > 7.30 | 5.30 to 6.30
11 | Nc1nccc(Oc2c(F)cc(NC(=O)c3cnn(-c4ncccn4)c3C(F)(F)F)cc2F)c1CN1CCOCC1 [Example 48, N-(4-((2-amino-3-(morpholinomethyl)pyridin-4-yl)oxy)-3,5-difluorophenyl)-1-(pyrimidin-2-yl)-5-(trifluoromethyl)-1H-pyrazole-4-carboxamide] | > 7.30 | < 5.30
12 | Nc1nccc(Oc2c(F)cc(NC(=O)c3cnn(-c4ncccc4Cl)c3C(F)(F)F)cc2F)c1CN1CCOCC1 [Example 49, N-(4-((2-amino-3-(morpholinomethyl)pyridin-4-yl)oxy)-3,5-difluorophenyl)-1-(3-chloropyridin-2-yl)-5-(trifluoromethyl)-1H-pyrazole-4-carboxamide] | > 7.30 | 5.30 to 6.30
13 | Nc1nccc(Oc2c(F)cc(NC(=O)c3cnn(-c4ccccc4)c3C(F)(F)F)cc2F)c1CN1CCOCC1 [Example 50, N-(4-((2-amino-3-(morpholinomethyl)pyridin-4-yl)oxy)-3,5-difluorophenyl)-1-phenyl-5-(trifluoromethyl)-1H-pyrazole-4-carboxamide] | > 7.30 | 5.30 to 6.30

Now from value to compound:

Row | pIC50 (RON) | pIC50 (cMET) | Structure (SMILES)
14 | > 7.30 | 5.30 to 6.30 | N#Cc1c(Oc2c(F)cc(NC(=O)c3cnn(-c4ccccn4)c3C(F)(F)F)cc2F)ccnc1N [Example 32, N-(4-((2-amino-3-cyanopyridin-4-yl)oxy)-3,5-difluorophenyl)-1-(pyridin-2-yl)-5-(trifluoromethyl)-1H-pyrazole-4-carboxamide]
15 | > 7.30 | 6.30 to 7.30 | N#Cc1c(Oc2c(F)cc(NC(=O)c3cnn(-c4ncccc4F)c3C(F)(F)F)cc2F)ccnc1N [Example 33, N-(4-((2-amino-3-cyanopyridin-4-yl)oxy)-3,5-difluorophenyl)-1-(3-fluoropyridin-2-yl)-5-(trifluoromethyl)-1H-pyrazole-4-carboxamide]
16 | > 7.30 | 6.30 to 7.30 | N#Cc1c(Oc2c(F)cc(NC(=O)c3cnn(-c4ncccc4Cl)c3C(F)(F)F)cc2F)ccnc1N [Example 34, N-(4-((2-amino-3-cyanopyridin-4-yl)oxy)-3,5-difluorophenyl)-1-(3-chloropyridin-2-yl)-5-(trifluoromethyl)-1H-pyrazole-4-carboxamide]
17 | > 7.30 | 5.30 to 6.30 | N#Cc1c(Oc2c(F)cc(NC(=O)c3cnn(-c4ncccn4)c3C(F)(F)F)cc2F)ccnc1N [Example 35, N-(4-((2-amino-3-cyanopyridin-4-yl)oxy)-3,5-difluorophenyl)-1-(pyrimidin-2-yl)-5-(trifluoromethyl)-1H-pyrazole-4-carboxamide]
18 | > 7.30 | 5.30 to 6.30 | Nc1nccc(Oc2c(F)cc(NC(=O)c3cnn(-c4ccccc4)c3C(F)(F)F)cc2F)c1C1CC1 [Example 37, N-(4-((2-amino-3-cyclopropylpyridin-4-yl)oxy)-3,5-difluorophenyl)-1-phenyl-5-(trifluoromethyl)-1H-pyrazole-4-carboxamide]
19 | > 7.30 | 5.30 to 6.30 | Nc1nccc(Oc2c(F)cc(NC(=O)c3cnn(-c4ncccc4F)c3C(F)(F)F)cc2F)c1C1CC1 [Example 38, N-(4-((2-amino-3-cyclopropylpyridin-4-yl)oxy)-3,5-difluorophenyl)-1-(3-fluoropyridin-2-yl)-5-(trifluoromethyl)-1H-pyrazole-4-carboxamide]
